A short description of data set [1]: Caco-2 permeation assay. Type of data set: in vitro ADME. The note with it: human, 37 °C, pH 7.4/7.4. The source says: Caco-2 cells were provided by ATCC and checked for mycoplasma contamination. These cells are not listed by ICLAC as misidentified cell lines (October 3rd, 2014). A total of 0.4 × 10^5 Caco-2 cells (ATCC no. […] The paracellular barrier characteristics of Caco-2 cells monolayer was monitored using (i) measurement of […] and (ii) measurement of the permeability to the non-permeant fluorescent molecule, Lucifer Yellow. Caco-2 cells were trypsinized after 3 days of incubation while they cover 80–90% of the flask and seeded at a density of 5 × 10^5 in 75 cm^2 flasks in complete medium supplemented with 73 nM (∼0.04 μg ml^−1) of the antibacterial puromycin (3′-[α-amino-p-methoxyhydrocinnamamido]-3′-deoxy-N,Ndimethyladenosine dihydrochloride). After 5–6 days, Caco-2 cells reach high cells density (>0.5 × 10^5 cells per cm^2) and are then passage into cell HTS 24-well plates with 0.4 μm polycarbonate membrane inserts. Cells were seeded at 600,000 cells per cm^2 (200,000 cells per insert) and cultivated for 6 days in complete medium with puromycin. Media was replaced every second days. Compound solutions were prepared in HEPES-buffered Ringerŕs (RH) solution (NaCl 150 mM, KCl 5.2 mM, CaCl2 2.2 mM, MgCl2 0.2 mM, NaHCO3 6 mM, Glucose 2.8 mM, HEPES 5 mM, water for injection), pH=7.4 at a final concentration of 1 or 10 μM for tested drugs. For A→B transport experiment, 0.2 ml of the compound solution was placed on the apical side of the cells and samples were taken from the basolateral compartment. For B→A transport experiment 0.8 ml of the solution was placed on the basolateral side of the cells and samples were taken from apical side. Transport Studies were done in Transwell polycarbonate: HTS 24-well plate inserts (surface area: 0.33 cm^2–0.4 μm pore size). Cells were equilibrated for 10 min in transport buffer prior to the transport experiment, and then incubations with compounds were performed at 37 °C under agitation. After 1 h aliquots were taken from each compartment and sampled in 96-well plates with glass insert. Permeation and the % of recovery are calculated using the formulas below: […]
In general terms: Caco-2 monolayers are a common model of the intestinal barrier.

For data set [2], the target named is T1, human NEP (Homo sapiens, UniProt P08473).
T1 construct: purchased R&D Systems
As to the kind of experiment: Neutral endopeptidase (NEP) selectivity assay. Type of data set: biochemical. The following applies: means of two experiments minimum, s.d.±10%; read-out: Selectivity IC50 hNEP. How it is done: Briefly, human NEP (R&D Systems; 200 ng ml^−1) was incubated 10 min at room temperature with compound in Hepes 50 mM, NaCl 100 mM, pH 7.4 and the enzymatic reaction started by adding the substrate (final concentration 200 μM). […] Briefly, human ACE (R&D Systems) was incubated 10 min at room temperature with compound in Tris 50 mM 1% NaCl pH 7.4 and the enzymatic reaction is started by adding the substrate (final concentration 300 μM). […] In vitro activity was assayed at CEREP.SA as follows.

A short description of data set [3]: Stability in mouse plasma. In kind it is in vitro ADME. The note with it: 37 °C, read-out: Plasma stability m (t1/2). How it is done: (§1) Incubations were performed in duplicate in Eppendorf tubes. The plasma (mouse plasma, rat plasma (mixed gender), human (mixed gender, all lithium heparine, from Sera Laboratories International) or cell culture medium (differenciation medium: DMEM (Life Technologies, Ref 41965), 0.4 % gentamicine, 10 % FCS (Lonza, Ref DE14-801F) or proliferation medium: DMEM (Life Technologies, Ref 41965), 0.4 % gentamicine, 2 % horse serum (Gbco, Ref16050) was pre-incubated 5 min at 37 °C before the addition of test compounds to a final concentration of 10 μM (1% DMSO maximum). At the defined time points, 50 μl from each tube were removed to another tube containing 450 μl of cold CH3CN+ internal standard (1 μM). After centrifugation (10 min at 10,000 r.p.m.), supernatants are analysed. The degradation half-life (t1/2) values were calculated as t1/2=0.693/k where k is the first-order degradation rate constant. The degradation rate constant (k) was estimated by one-phase exponential decay nonlinear regression analysis of the degradation time course data using Xlfit software (version 2.1.2 or higher) from IDBS.Ltd.

Data set [4] relates to C57BL/6J mice. As to the kind of experiment: Insulin tolerance test (ITT). In kind it is in vivo, mouse. The following applies: 50 mg kg^−1 ip. As to the method: AUC for ITT were calculated to evaluate insulin sensitivity. Blood glucose levels were determined using an Accu-Check glucometer (Roche Diagnostics). […] The protocol was approved by the ethical comitee CEEA Nord Pas de Calais (CEEA75).

Data set [5] in a line: Stability in human plasma. In kind it is in vitro ADME. The following applies: both sexes, read-out: Plasma stability h (t1/2). As to the method:
as §1

The subject of data set [6] is C57BL/6J mice. Description: Pyruvate tolerance test. Type of data set: in vivo, mouse. The following applies: 50 mg kg^−1 ip, pyruvate 2 g kg^−1. How it is done:
Pyruvate tolerance test was performed on 18 h-fasted mice (12 week-old male C57BL/6J mice, n=8 for each group, randomized on blood glucose at the end of the fasting period). […] Fifteen minutes later, blood glucose was measured before and after (up to 120 min) intraperitoneal sodium pyruvate (2 g kg^−1) injection. The AUC of glycaemia versus time were calculated to estimate the total glucose synthesized from pyruvate. Blood glucose levels were determined using an Accu-Check glucometer (Roche Diagnostics). The protocol was approved by the ethical comitee CEEA Nord Pas de Calais (CEEA75).

“Also recorded” adds a separate entry of the source. Some results are limits rather than exact numbers.

T1 sequence (P08473 whole entry): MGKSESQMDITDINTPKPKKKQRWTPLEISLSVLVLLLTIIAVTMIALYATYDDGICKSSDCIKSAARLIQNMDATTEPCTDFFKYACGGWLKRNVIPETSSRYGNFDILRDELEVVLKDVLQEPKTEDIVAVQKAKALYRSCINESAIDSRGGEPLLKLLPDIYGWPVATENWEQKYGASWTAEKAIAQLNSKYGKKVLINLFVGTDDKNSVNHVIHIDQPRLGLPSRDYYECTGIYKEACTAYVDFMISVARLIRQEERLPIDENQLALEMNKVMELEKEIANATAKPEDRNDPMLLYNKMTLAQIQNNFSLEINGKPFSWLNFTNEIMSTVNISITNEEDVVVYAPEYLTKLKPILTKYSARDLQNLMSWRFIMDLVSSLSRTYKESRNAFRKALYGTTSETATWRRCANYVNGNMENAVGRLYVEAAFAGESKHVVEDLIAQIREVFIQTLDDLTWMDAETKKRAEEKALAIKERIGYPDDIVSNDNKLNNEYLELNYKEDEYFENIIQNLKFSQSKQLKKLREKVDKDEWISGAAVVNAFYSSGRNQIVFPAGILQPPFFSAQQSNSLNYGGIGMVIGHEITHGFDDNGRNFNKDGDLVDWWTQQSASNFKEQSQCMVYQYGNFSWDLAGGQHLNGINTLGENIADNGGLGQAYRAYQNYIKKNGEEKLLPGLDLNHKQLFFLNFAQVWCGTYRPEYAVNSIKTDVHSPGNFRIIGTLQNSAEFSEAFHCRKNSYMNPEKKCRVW

`O=C(C[C@@H](Cc1ccc2ccccc2c1)n1cc(CNC(=O)c2ccc(F)cc2)nn1)NO` [Compound 1] showed a Papp A→B at 1 h, 1 μM in data set [1] (Caco-2, A→B, 1 μM) of 3.3 ×10⁻⁶ cm/s. For the same molecule, the Papp A→B at 1 h, 10 μM in data set [1] (Caco-2, A→B, 10 μM) was determined as 2.4 ×10⁻⁶ cm/s. The molecule also yielded a Papp B→A at 1 h, 1 μM in data set [1] (Caco-2, B→A, 1 μM) of 19 ×10⁻⁶ cm/s. In addition, the Papp B→A at 1 h, 10 μM in data set [1] (Caco-2, B→A, 10 μM) is 17 ×10⁻⁶ cm/s. The IC50 in data set [2] is 2600 nM. The half-life at 10 μM was 24 h in data set [3] and above 24 h in data set [5]. Also, the “serum insulin concentrations during ITT” value in data set [4] (0.75 U kg^−1 insulin, significant at 30 min) is “slightly increased”. Moreover, in data set [4] (30 and 60 min), the “glucose lowering effect of insulin during ITT” value was “Augments insulin action in vivo; also recorded: tended to enhance”. Also, the “hepatic gluconeogenesis in pyruvate tolerance test” value in data set [6] is given as “No effect on gluconeogenesis; also recorded: not altered”.

As usually defined, the Papp A→B is how fast a substance crosses the layer from the apical side. The low end stands for slow passage, the high end for fast passage. Broadly, the Papp B→A is the apparent permeability from the basolateral to the apical side of a cell layer. Usually IC50 stands for the concentration at which inhibition is half-maximal.

Values taken from article PMC4580987, “Catalytic site inhibition of insulin-degrading enzyme by a small molecule induces glucose intolerance in mice” (Nature Communications, 2015).
